Legend:
FGF7 protein = test: Growth factor protein quantitation in DP cell medium, FGF7; assay type: cell-based, human; conditions: for protein_FGF7: DP cell medium
Excerpt: (§1) Next, we investigated the downstream effects of P5 on hair growth factor genes and proteins in DP cells. […] We tested whether P5 can also increase the mRNA levels and proteins of hair growth factors in DP cells: IGF‐1, VEGF, HGF, platelet‐derived growth factor alpha (PDGFA), and fibroblast growth factor (FGF) 7, which are known to induce or maintain the anagen phase of the hair cycle (Jindo et al, [1994]; Philpott et al, [1994]; Yano et al, [2001]; Jang, [2005]; Tomita et al, [2006]; Iino et al, [2007]).
(§2) Human DP cells were grown on a 100‐mm cell culture dish to 100% confluency. After washed by PBS three times, the cells were cultured with serum‐free DMEM and treated with P5. After 48 h, the medium was collected and filtered by a […]. The filtrate was then concentrated using a centrifugal concentrator (Vivaspin 6, 10‐kDa molecular weight cutoff, centrifuged 2,600 g at 4°C for 13 min, Sartorius Stedim Biotech). The signals of each protein in the concentrated media were detected and quantified, based on the enzyme‐linked immunosorbent assay (Human Cytokine Antibody Array C2000, RayBiotech).

HGF mRNA = test: qRT-PCR growth factor gene expression in DP cells, HGF; assay type: cell-based, human; conditions: for mRNA_HGF: DP cells
Excerpt: as §1
(§3) Total RNA was isolated from P5‐treated DP cells using RNAiso Plus (#9109; TaKaRa). We used the total RNA (1 µg) for cDNA synthesis using a RevertAid First Strand cDNA Synthesis Kit (Thermo Fisher) according to the manufacturer's instructions. The mRNA expression levels were quantified on a 7500 Real‐time PCR System (Thermo Fisher) using TB Green Premix Ex Taq (TaKaRa Bio): human IGF‐1, VEGF, HGF, PDGFA, FGF7, and glyceraldehyde 3‐phosphate dehydrogenase (GAPDH) (Appendix Table S2). The relative expression levels of each gene were determined by the 2^‐ΔΔCT method.

[1] = Transdermal delivery in ex vivo human skin tissue culture, qualitative MS of dermal lysate; assay type: in vitro ADME; conditions: 50 mM in DMSO placed daily, 5 days, 37°C, dermal lysate in 50% methanol
Excerpt: Next, we checked whether topically applied P5 can be delivered into human skin using ex vivo skin tissue culture model (Fig EV4A) (Haslam et al, [2018]). After topical application of vehicle or P5 on the ex vivo skin tissue, the dermal lysate of each tissue was examined by the qualitative mass spectrometry (MS). […] To trace the origin of P5, we used isotope‐marked P5 (P5*), in which carbon (^12C) atoms of Gly were substituted with isotope carbon atoms (^13C) increasing the molecular weight by 2 compared to that of original P5 (Fig EV4B). […] Collectively, P5 can be transdermally delivered into human skin.
Topical application of peptides on ex vivo skin study was performed as described previously (Haslam et al, [2018]). Briefly, full thickness skin tissue from cadavers within 48 h after death was acquired and biopsied using a 6 mm punch. The skin tissue was acclimatized in supplemented Williams’ E media with L‐glutamine (2 mM), penicillin‐streptomycin solution (1×), hydrocortisone (10 ng/ml), and insulin (100 ng/ml) overnight at 37°C in a 5% CO2 atmosphere. After acclimatization, the skin tissue was carefully pulled through a cell strainer with the epidermis exposed to the air, leaving the dermis submerged in the culture media. […] The lysate was qualitatively analyzed by a MS system (API 4000 Q‐trap; AB SCIEX).

PDGFA mRNA = test: qRT-PCR growth factor gene expression in DP cells, PDGFA; assay type: cell-based, human; conditions: for mRNA_PDGFA: DP cells
Excerpt: as §1, §3

IGF-1 protein = test: Growth factor protein quantitation in DP cell medium, IGF-1; assay type: cell-based, human; conditions: for protein_IGF1: DP cell medium
Excerpt: as §1, §2

[2] = P5 5μM, relative to Control = 1, replicate 1
[3] = P5 5μM, relative to Control = 1, replicate 2
[4] = P5 5μM, relative to Control = 1, replicate 3
[5] = P5 25μM, relative to Control = 1, replicate 1
[6] = P5 25μM, relative to Control = 1, replicate 2
[7] = P5 25μM, relative to Control = 1, replicate 3
[8] = P5-treated DP cells, 48 h medium, n = 3
[9] = P5 5μM, relative to Control = 1, replicate 4
[10] = P5 25μM, relative to Control = 1, replicate 4

GLYYF [P5, GST-fused (GST-P5) in pulldown assays]
protein_FGF7 (FGF7 protein; [2]): 1.396 | protein_FGF7 (FGF7 protein; [3]): 1.679 | protein_FGF7 (FGF7 protein; [4]): 1.269 | protein_FGF7 (FGF7 protein; [5]): 3.318 | protein_FGF7 (FGF7 protein; [6]): 3.35 | protein_FGF7 (FGF7 protein; [7]): 1.357 | FGF7 protein expression level (FGF7 protein; [8]): elevated | mRNA_HGF (HGF mRNA; [2]): 3.441 | mRNA_HGF (HGF mRNA; [3]): 1.115 | mRNA_HGF (HGF mRNA; [4]): 3.233 | mRNA_HGF (HGF mRNA; [9]): 5.51 | mRNA_HGF (HGF mRNA; P5 5μM, relative to Control = 1, replicate 5): 1.947 | mRNA_HGF (HGF mRNA; P5 5μM, relative to Control = 1, replicate 6): 1.893 | mRNA_HGF (HGF mRNA; [5]): 6.428 | mRNA_HGF (HGF mRNA; [6]): 1.581 | mRNA_HGF (HGF mRNA; [7]): 2.359 | mRNA_HGF (HGF mRNA; [10]): 5.518 | mRNA_HGF (HGF mRNA; P5 25μM, relative to Control = 1, replicate 5): 2.408 | mRNA_HGF (HGF mRNA; P5 25μM, relative to Control = 1, replicate 6): 2.218 | HGF mRNA expression (HGF mRNA; P5-treated DP cells, n = 6): significantly increased | Detection in skin dermis after topical application (transdermal delivery) [1]: qualitatively detected | mRNA_PDGFA (PDGFA mRNA; [2]): 1.237 | mRNA_PDGFA (PDGFA mRNA; [3]): 1.013 | mRNA_PDGFA (PDGFA mRNA; [4]): 1.221 | mRNA_PDGFA (PDGFA mRNA; [9]): 1.252 | mRNA_PDGFA (PDGFA mRNA; [5]): 1.5777 | mRNA_PDGFA (PDGFA mRNA; [6]): 1.8805 | mRNA_PDGFA (PDGFA mRNA; [7]): 1.22 | mRNA_PDGFA (PDGFA mRNA; [10]): 1.95 | PDGFA mRNA expression (PDGFA mRNA; P5-treated DP cells, n = 4): significantly increased | protein_IGF1 (IGF-1 protein; [2]): 0.9827 | protein_IGF1 (IGF-1 protein; [3]): 1.413 | protein_IGF1 (IGF-1 protein; [4]): 2.07 | protein_IGF1 (IGF-1 protein; [5]): 1.764 | protein_IGF1 (IGF-1 protein; [6]): 4.926 | protein_IGF1 (IGF-1 protein; [7]): 5.716 | IGF-1 protein expression level (IGF-1 protein; [8]): elevated
